Our source for the inhibition, melting point and IC50 values is patent publication US20020028938A1, “Prostaglandin endoperoxide H synthase biosynthesis inhibitors” (priority 1997, published 2002).

pIC50: −log10 of the molar value.

Series [1] addresses T1, recombinant human Cox-1 (r-hu Cox1) (Homo sapiens, UniProt P23219).
T1 construct: made in house; host or cells: baculovirus/Sf9 insect cells (microsomes)
The series is described as follows: Recombinant human PGHS-1 enzyme assay (RHUCX1). It is filed as biochemical. The method in brief:
(§1)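 IC50 values come from linear regression of percent inhibition, itself calculated against the mean of untreated controls. The underlying signal is PGE2, determined by EIA after a brief room-temperature reaction (2.5 minutes) terminated with acid and then base-neutralized.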

For series [2], the target named is T2, recombinant human Cox-2 (r-hu Cox-2) (Homo sapiens, UniProt P35354).
T2 construct: made in house; host or cells: baculovirus/Sf9 insect cells (microsomes)
T2 sequence (P35354 18-604): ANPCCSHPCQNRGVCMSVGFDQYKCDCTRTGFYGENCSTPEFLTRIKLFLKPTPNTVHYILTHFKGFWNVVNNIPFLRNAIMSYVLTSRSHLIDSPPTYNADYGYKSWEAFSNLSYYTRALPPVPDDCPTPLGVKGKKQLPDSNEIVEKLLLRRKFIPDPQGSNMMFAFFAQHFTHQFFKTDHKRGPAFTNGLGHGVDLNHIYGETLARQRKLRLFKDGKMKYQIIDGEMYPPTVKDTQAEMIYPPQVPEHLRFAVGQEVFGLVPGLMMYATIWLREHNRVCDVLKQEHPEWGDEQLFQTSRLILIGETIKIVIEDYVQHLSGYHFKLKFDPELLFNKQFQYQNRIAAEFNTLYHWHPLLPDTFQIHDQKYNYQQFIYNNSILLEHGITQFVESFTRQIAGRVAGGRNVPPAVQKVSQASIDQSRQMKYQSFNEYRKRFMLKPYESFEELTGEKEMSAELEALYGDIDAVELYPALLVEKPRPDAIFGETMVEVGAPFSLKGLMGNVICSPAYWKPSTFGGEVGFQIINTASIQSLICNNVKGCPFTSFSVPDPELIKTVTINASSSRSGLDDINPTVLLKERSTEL
In words: Recombinant human PGHS-2 enzyme assay (RHUCX2). It is filed as biochemical. The conditions noted are these: for inhibition at 0.1 µM / inhibition at 1 µM / inhibition at 10 µM / inhibition at 0.01 µM: read-out: RHUCX2 % Inh. at Dose; for pIC50: read-out: RHUCX2 IC50 (parenthetical value). The method in brief: as §1

[3] abbreviates: read-out: RHUCX1 % Inh. at Dose.

T1 sequence (P23219 24-599): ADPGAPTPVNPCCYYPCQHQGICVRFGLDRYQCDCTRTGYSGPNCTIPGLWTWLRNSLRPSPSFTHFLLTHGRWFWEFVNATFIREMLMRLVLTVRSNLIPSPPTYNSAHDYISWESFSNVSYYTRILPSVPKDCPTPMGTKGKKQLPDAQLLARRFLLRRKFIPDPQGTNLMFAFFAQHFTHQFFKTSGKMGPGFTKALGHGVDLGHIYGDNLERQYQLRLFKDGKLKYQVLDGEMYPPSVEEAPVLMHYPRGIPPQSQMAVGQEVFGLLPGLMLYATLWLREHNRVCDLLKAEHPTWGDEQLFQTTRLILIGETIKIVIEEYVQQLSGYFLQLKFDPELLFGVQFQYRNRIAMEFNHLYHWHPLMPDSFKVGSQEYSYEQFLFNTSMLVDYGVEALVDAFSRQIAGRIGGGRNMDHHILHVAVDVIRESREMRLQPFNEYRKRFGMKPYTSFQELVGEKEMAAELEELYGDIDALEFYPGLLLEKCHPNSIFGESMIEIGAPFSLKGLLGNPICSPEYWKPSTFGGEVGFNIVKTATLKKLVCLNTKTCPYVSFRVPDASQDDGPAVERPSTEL

`CS(=O)(=O)c1ccc(-c2cnn(C=C(F)C(F)(F)C(F)(F)F)c(=O)c2-c2ccc(F)cc2)cc1` [Example 40, 2-(2,3,3,4,4,4-Hexafluorobuten-1-yl)-4-(4-fluorophenyl)-5-[4-(methylsulfonyl)phenyl]-3(2H)-pyridazinone] returned a melting point of 167 to 169 °C. Further, the inhibition at 1 µM in series [1] (1 μM, read-out: RHUCX1 % Inh. at Dose) amounted to 69%. The inhibition at 10 µM in series [1] (setting [3]) was 76%. Further, in series [2], the inhibition at 0.1 µM was determined as 89% and the inhibition at 1 µM worked out at 97%.
For the compound `CSc1cccc(-n2ncc(-c3ccc(S(C)(=O)=O)cc3)c(-c3ccc(F)cc3)c2=O)c1` [Example 97, 2-[3-(Methylthio)phenyl]-4-(4-fluorophenyl)-5-[4-(methylsulfonyl)phenyl]-3(2H)-pyridazinone], the melting point was found to be 196 °C. Further, the inhibition at 100 µM in series [1] (setting [3]) worked out at 35%. Further, the negative-log IC50 (pIC50) in series [2] was 6.48.
`CS(=O)(=O)c1ccc(-c2cnn(Cc3ccccc3C(F)(F)F)c(=O)c2-c2ccc(F)cc2)cc1` [Example 25, 2-(2-Trifluoromethylbenzyl)-4-(4-fluorophenyl)-5-[4-(methylsulfonyl)phenyl]-3(2H)-pyridazinone]: the melting point fell in the range of 87 to 90 °C. For the same compound, in series [1] (setting [3]), the inhibition at 100 µM came out at 1%. In series [2], the inhibition at 0.1 µM was 66% and the inhibition at 1 µM was found to be 93%.
Regarding `CS(=O)(=O)c1ccc(-c2cnn(CC(F)(F)F)c(=O)c2Oc2cccnc2)cc1` [Example 265, 2-(2,2,2-Trifluoroethyl)-4-(3-pyridyloxy)-5-[4-(methylsulfonyl)phenyl]-3(2H)-pyridazinone], the melting point lay within 191 to 193 °C. Moreover, in series [1] (setting [3]), the inhibition at 100 µM was determined as 8%. Also, in series [2], the inhibition at 0.1 µM worked out at 33%, the inhibition at 1 µM was 48% and the inhibition at 10 µM amounted to 53%.
In the case of `CC(C)CC(C)Oc1c(-c2ccc(S(C)(=O)=O)cc2)cnn(-c2ccc(F)c(F)c2)c1=O` (centres unmarked) [Example 438], the melting point is 132 to 133 °C. For the same compound, in series [1] (setting [3]), the inhibition at 100 µM came to 0%. The pIC50 in series [2] was 6.90.
Turning to `CC(c1cccc(F)c1)n1ncc(-c2ccc(S(N)(=O)=O)cc2)c(-c2ccc(F)cc2)c1=O` (stereo not drawn) [Example 144, 2-(α-Methyl-3-fluorobenzyl)-4-(4-fluorophenyl)-5-[4-(aminosulfonyl)phenyl]-3(2H)-pyridazinone], the melting point lay within 192 to 194 °C. In series [1] (read-out: RHUCX1 IC50 (parenthetical value)), the pIC50 is 7.24. For the same compound, in series [2], the inhibition at 0.01 µM came out at 65%, the inhibition at 0.1 µM amounted to 78% and the inhibition at 1 µM worked out at 88%.
Compound `CS(=O)(=O)c1ccc(-c2cnn(CC=Cc3ccccc3)c(=O)c2-c2ccc(F)cc2)cc1` [Example 36, 2-(3-Phenyl-2-propenyl)-4-(4-fluorophenyl)-5-[4-(methylsulfonyl)phenyl]-3(2H)-pyridazinone] yielded a melting point of 165 to 167 °C. The inhibition at 10 µM in series [1] (setting [3]) is 21%. The negative-log IC50 (pIC50) in series [2] was 6.24.
In turn, `CC(C)CCCOc1c(-c2ccc(S(C)(=O)=O)cc2)cnn(-c2cccc(Cl)c2)c1=O` [Example 413] gave a melting point of 139 to 140 °C. In series [1] (setting [3]), the inhibition at 100 µM was determined as 0%. For the same compound, the negative logarithm of the IC50 (pIC50) in series [2] was 6.96.
Regarding `CS(=O)(=O)c1ccc(-c2cnn(-c3ccc(F)cc3)c(=O)c2N2CCCCC2)cc1` [Example 355, 2-(4-Fluorophenyl)-4-(1-piperidinyl)-5-[4-(methylsulfonyl)phenyl]-3(2H)-pyridazinone], the melting point lay in the range of 80 to 100 °C. Besides, the inhibition at 100 µM in series [1] (setting [3]) came to 0%. Further, in series [2], the inhibition at 0.1 µM was 46%, the inhibition at 1 µM is 66% and the inhibition at 10 µM came out at 79%.
For the compound `CS(=O)(=O)c1ccc(-c2cnn(-c3ccc(F)c(F)c3)c(=O)c2OCCC2C=CCC2)cc1` (centres unmarked) [Example 440, 2-(3,4-Difluorophenyl)-4-(2-cyclopent-2-enyl-1-ethoxy)-5-[4-(methylsulfonyl)phenyl]-3(2H)-pyridazinone], the melting point is 126 to 127 °C. Besides, the inhibition at 100 µM in series [1] (setting [3]) came to 20%. In addition, in series [2], the inhibition at 0.01 µM was 22%, the inhibition at 0.1 µM was 59% and the inhibition at 1 µM was 84%.

The melting point is the temperature of the solid-liquid transition. The term pIC50 denotes −log10 of the IC50, conventionally taken in molar units.
